Measurements taken from the supplement of paper PMC10307832.

Assays:
Experiment in all cases: relative viability (nuclei count vs DMSO), 5 days (fraction); higher = more cells survive
CAP-232 + OSI-027 = compound: C[C@H]([C@@H](C(=O)N)NC(=O)[C@@H]1CSSC[C@@H](C(=O)N[C@H](C(=O)N[C@@H](C(=O)N[C@H](C(=O)N1)CCCCN)CC2=CNC3=CC=CC=C32)CC4=CC=C(C=C4)O)NC(=O)[C@@H](CC5=CC=CC=C5)N)O [CAP-232] + COc1cccc2cc(-c3nc([C@H]4CC[C@H](C(=O)O)CC4)n4ncnc(N)c34)[nH]c12 [OSI-027] (partner 0.5 µM)
In short: (§1)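 After 5 days of treatment, lung cancer cells in 1536-well plates were fixed and stained in a single step (final 0.05% Triton X-100, 1% formaldehyde, 1 ug/ml Hoechst) and their nuclei counted on 4× images. Treatment had been applied by pin tool the day after seeding as one drug alone or as a fixed anchor-drug dose with five library-drug doses (not always all listed) in √10 steps. Relative viability is the nuclei count of treated wells divided by that of vehicle wells, and values are medians of duplicate plates.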

CAP-232 + Phenformin = compound: C[C@H]([C@@H](C(=O)N)NC(=O)[C@@H]1CSSC[C@@H](C(=O)N[C@H](C(=O)N[C@@H](C(=O)N[C@H](C(=O)N1)CCCCN)CC2=CNC3=CC=CC=C32)CC4=CC=C(C=C4)O)NC(=O)[C@@H](CC5=CC=CC=C5)N)O [CAP-232] + N=C(N)NC(=N)NCCc1ccccc1 [Phenformin] (partner 250 µM)
In short: as §1

CAP-232 + Crizotinib = compound: C[C@H]([C@@H](C(=O)N)NC(=O)[C@@H]1CSSC[C@@H](C(=O)N[C@H](C(=O)N[C@@H](C(=O)N[C@H](C(=O)N1)CCCCN)CC2=CNC3=CC=CC=C32)CC4=CC=C(C=C4)O)NC(=O)[C@@H](CC5=CC=CC=C5)N)O [CAP-232] + C[C@@H](Oc1cc(-c2cnn(C3CCNCC3)c2)cnc1N)c1c(Cl)ccc(F)c1Cl [Crizotinib] (partner 1 µM)
In short: as §1

CAP-232 + Foretinib = compound: C[C@H]([C@@H](C(=O)N)NC(=O)[C@@H]1CSSC[C@@H](C(=O)N[C@H](C(=O)N[C@@H](C(=O)N[C@H](C(=O)N1)CCCCN)CC2=CNC3=CC=CC=C32)CC4=CC=C(C=C4)O)NC(=O)[C@@H](CC5=CC=CC=C5)N)O [CAP-232] + COc1cc2c(Oc3ccc(NC(=O)C4(C(=O)Nc5ccc(F)cc5)CC4)cc3F)ccnc2cc1OCCCN1CCOCC1 [Foretinib] (partner 0.25 µM)
In short: as §1

CAP-232 + Alpelisib = compound: C[C@H]([C@@H](C(=O)N)NC(=O)[C@@H]1CSSC[C@@H](C(=O)N[C@H](C(=O)N[C@@H](C(=O)N[C@H](C(=O)N1)CCCCN)CC2=CNC3=CC=CC=C32)CC4=CC=C(C=C4)O)NC(=O)[C@@H](CC5=CC=CC=C5)N)O [CAP-232] + Cc1nc(NC(=O)N2CCC[C@H]2C(N)=O)sc1-c1ccnc(C(C)(C)C(F)(F)F)c1 [Alpelisib] (partner 2 µM)
In short: as §1

Row | Cell Line | relative viability (CAP-232 + OSI-027; first compound 0.4 µM) | relative viability (CAP-232 + OSI-027; first compound 1.265 µM) | relative viability (CAP-232 + OSI-027; first compound 4 µM) | relative viability (CAP-232 + OSI-027; first compound 12.65 µM) | relative viability (CAP-232 + Phenformin; first compound 0.4 µM) | relative viability (CAP-232 + Phenformin; first compound 1.265 µM) | relative viability (CAP-232 + Phenformin; first compound 4 µM) | relative viability (CAP-232 + Phenformin; first compound 12.65 µM) | relative viability (CAP-232 + Crizotinib; first compound 0.4 µM) | relative viability (CAP-232 + Crizotinib; first compound 1.265 µM) | relative viability (CAP-232 + Crizotinib; first compound 4 µM) | relative viability (CAP-232 + Crizotinib; first compound 12.65 µM) | relative viability (CAP-232 + Foretinib; first compound 0.4 µM) | relative viability (CAP-232 + Foretinib; first compound 1.265 µM) | relative viability (CAP-232 + Foretinib; first compound 4 µM) | relative viability (CAP-232 + Foretinib; first compound 12.65 µM) | relative viability (CAP-232 + Alpelisib; first compound 0.4 µM) | relative viability (CAP-232 + Alpelisib; first compound 1.265 µM) | relative viability (CAP-232 + Alpelisib; first compound 4 µM) | relative viability (CAP-232 + Alpelisib; first compound 12.65 µM)
1 | 201T | 0.749 | 0.669 | 0.722 | 0.549 | 0.487 | 0.419 | 0.416 | 0.443 | 1.13 | 1.02 | 1.04 | 1.04 | 1.17 | 1.14 | 1.03 | 0.864 | 1.05 | 0.975 | 0.992 | 1.04
2 | A549 | – | – | – | – | 0.164 | 0.183 | 0.146 | 0.113 | 0.86 | 0.734 | 0.871 | 0.251 | 1.01 | 0.998 | 0.935 | 0.369 | 0.659 | 0.653 | 0.734 | 0.348
3 | A-427 | 0.306 | 0.458 | 0.494 | 0.612 | 0.249 | 0.332 | 0.259 | 0.312 | 0.881 | 0.913 | 0.908 | 0.93 | 0.852 | 1.19 | 1.05 | 1.1 | 1.08 | 1.04 | 1.06 | 1.08
4 | ABC-1 | 0.455 | 0.421 | 0.481 | 0.271 | 0.249 | 0.243 | 0.215 | 0.186 | 1.01 | 1.17 | 1.08 | 0.903 | 0.772 | 0.876 | 1.35 | 0.677 | 1.05 | 1.15 | 1.24 | 0.504
5 | BEN | 0.27 | 0.33 | 0.287 | 0.241 | 0.246 | 0.231 | 0.231 | 0.221 | 0.859 | 0.98 | 0.82 | 0.772 | 0.776 | 0.624 | 0.595 | 0.595 | 1.03 | 1.01 | 1.06 | 0.858
6 | CAL-12T | 0.611 | 0.556 | 0.585 | 0.298 | 0.491 | 0.506 | 0.593 | 0.355 | 0.531 | 0.703 | 0.657 | 0.739 | 1.06 | 1.06 | 0.927 | 0.85 | 1.11 | 1.24 | 1.42 | 0.726
7 | COR-L23 | 1.15 | 0.759 | 0.85 | 0.495 | 0.497 | 0.47 | 0.468 | 0.372 | 0.665 | 0.793 | 0.72 | 0.619 | 1.02 | 0.957 | 1.1 | 0.851 | 0.725 | 0.754 | 0.701 | 0.616
8 | COR-L 105 | 0.852 | 0.646 | 0.646 | 0.387 | 0.423 | 0.429 | 0.501 | 0.287 | 0.863 | 0.808 | 0.804 | 0.581 | 0.955 | 0.851 | 1.22 | 0.572 | 1.09 | 0.917 | 1.16 | 0.594
9 | ChaGo-K-1 | 0.65 | 0.504 | 0.678 | 0.6 | 0.487 | 0.466 | 0.601 | 0.505 | 1.22 | 1.17 | 1.41 | 0.833 | 0.954 | 0.779 | 0.836 | 0.912 | – | – | – | –
10 | EKVX | 0.724 | 0.779 | 0.667 | 0.64 | 0.232 | 0.218 | 0.23 | 0.233 | 0.899 | 1.1 | 1.03 | 0.651 | 0.77 | 0.571 | 0.768 | 0.768 | 0.806 | 0.969 | 0.833 | 0.715
11 | EMC-BAC-2 | 0.407 | 0.324 | 0.328 | 0.358 | 0.541 | 0.498 | 0.526 | 0.465 | 0.794 | 0.753 | 0.764 | 0.709 | 1.1 | 0.953 | 1.01 | 0.907 | 0.78 | 0.718 | 0.743 | 0.623
12 | EPLC-272H | 0.275 | 0.284 | 0.285 | 0.262 | 0.276 | 0.285 | 0.319 | 0.322 | 1.16 | 0.836 | 0.791 | 0.887 | 0.661 | 0.644 | 0.659 | 0.71 | 0.895 | 0.959 | 0.988 | 0.941
13 | H3255 | 0.567 | 0.538 | 0.63 | 0.811 | 0.746 | 0.309 | 0.341 | 0.504 | 0.956 | 1.04 | 0.854 | 0.692 | 0.849 | 0.799 | 0.866 | 0.854 | 0.759 | 0.741 | 0.633 | 0.503
14 | HARA | 0.436 | 0.554 | 0.613 | 0.44 | 0.538 | 0.5 | 0.463 | 0.515 | 1.16 | 1.05 | 0.936 | 0.998 | 0.983 | 0.975 | 0.805 | 0.824 | 0.791 | 0.847 | 0.876 | 0.58
15 | HCC-15 | 0.714 | 0.662 | 0.69 | 0.521 | 0.477 | 0.465 | 0.481 | 0.236 | 0.807 | 0.816 | 0.924 | 0.825 | 1.08 | 1.07 | 1.09 | 0.652 | 0.935 | 0.878 | 0.86 | 0.824
